Experimental data published in patent US5859257A, “Isoxazole compounds as cyclooxygenase inhibitors” (G. D. Searle & Co., priority 1996, dated 1999).

Experiments:
COX-1 = experiment: Evaluation of COX-1 activity in vitro (PGE2 ELISA, recombinant enzyme); assay type: biochemical, human or murine; settings: arachidonic acid 10 μM, pH 8.0, pre-incubation 10-20 minutes
Experimental: (§1) a. Preparation of recombinant COX baculoviruses
(§2) Recombinant COX-1 and COX-2 were prepared as scribed by Gierse et al, [J. Biochem., 305, 479-84 (1995)]. […] Recombinant baculoviruses were isolated by transfecting 4 μg of baculovirus transfer vector DNA into SF9 insect cells (2×10^8) along with 200 ng of linearized baculovirus plasmid DNA by the calcium phosphate method. See M. D. Summers and G. E. Smith, A Manual of Methods for Baculovirus Vectors and Insect Cell Culture Procedures, Texas Agric. Exp. Station Bull. 1555 (1987). Recombinant viruses were purified by three rounds of plaque purification and high titer (10^7 -10^8 pfu/mL) stocks of virus were prepared. For large scale production, SF9 insect cells were infected in 10 liter fermentors (0.5×10^6 /mL) with the recombinant baculovirus stock such that the multiplicity of infection was 0.1. After 72 hours the cells were centrifuged and the cell pellet homogenized in Tris/Sucrose (50 mM: 25%, pH 8.0) containing 1% 3-[(3-cholamidopropyl)dimethylammonio]-1-propanesulfonate (CHAPS). The nomogenate was centrifuged at 10,000×G for 30 minutes, and the resultant supernatant was stored at -80° C. before being assayed for COX activity.
(§3) COX activity was assayed as PGE2 formed/μg protein/time using an ELISA to detect the prostaglandin released. CHAPS-solubilized insect cell membranes containing the appropriate COX enzyme were incubated in a potassium phosphate buffer (50 mM, pH 8.0) containing epinephrine, phenol, and heme with the addition of arachidonic acid (10 μM). […] Any reaction between the arachidonic acid and the enzyme was stopped after ten minutes at 37° C./room temperature by transferring 40 μl of reaction mix into 160 μl ELISA buffer and 25 μM indomethacin. The PGE2 formed was measured by standard ELISA technology (Cayman Chemical).

COX-2 = experiment: Evaluation of COX-2 activity in vitro (PGE2 ELISA, recombinant enzyme); assay type: biochemical, human or murine; settings: arachidonic acid 10 μM, pH 8.0, pre-incubation 10-20 minutes
Experimental: The COX-2 inhibition activity of the compounds of this invention illustrated in the Examples was determined by the following methods.
as §1, §2, §3

| Structure (SMILES) | IC50 (COX-1) [µM] | IC50 (COX-2) [µM] |
| --- | --- | --- |
| CCc1onc(-c2ccccc2)c1-c1ccc(S(N)(=O)=O)cc1 [Example 1a, 4-[5-ethyl-3-phenylisoxazol-4-yl]benzenesulfonamide] | 17.4 | < 0.1 |
| CCCc1onc(-c2ccccc2)c1-c1ccc(S(N)(=O)=O)cc1 [Example 1b, 4-[5-propyl-3-phenylisoxazol-4-yl]benzenesulfonamide] | 13.2 | < 0.1 |
| CC(C)c1onc(-c2ccccc2)c1-c1ccc(S(N)(=O)=O)cc1 [Example 1c, 4-[5-isopropyl-3-phenylisoxazol-4-yl]benzenesulfonamide] | 6.2 | < 0.1 |
| CCCCc1onc(-c2ccccc2)c1-c1ccc(S(N)(=O)=O)cc1 [Example 1d, 4-[5-butyl-3-phenylisoxazol-4-yl]benzenesulfonamide] | 25.8 | < 0.1 |
| CC(C)Cc1onc(-c2ccccc2)c1-c1ccc(S(N)(=O)=O)cc1 [Example 1e, 4-[5-isobutyl-3-phenylisoxazol-4-yl]benzenesulfonamide] | 37.7 | < 0.1 |
| NS(=O)(=O)c1ccc(-c2c(-c3ccccc3)noc2C2CCCCC2)cc1 [Example 1f, 4-[5-cyclohexyl-3-phenylisoxazol-4-yl]benzenesulfonamide] | 54 | – |
| CC(C)(C)Cc1onc(-c2ccccc2)c1-c1ccc(S(N)(=O)=O)cc1 [Example 1g, 4-[5-neopentyl-3-phenylisoxazol-4-yl]benzenesulfonamide] | > 100 | < 0.1 |
| NS(=O)(=O)c1ccc(-c2c(-c3ccccc3)noc2CC2CCCCC2)cc1 [Example 1h, 4-[5-cyclohexylmethyl-3-phenylisoxazol-4-yl]benzenesulfonamide] | 4.7 | < 0.1 |
| NS(=O)(=O)c1ccc(-c2c(-c3ccccc3)noc2Cc2ccc(Cl)cc2)cc1 [Example 1i, 4-[5-(4-chlorophenyl)methyl-3-phenylisoxazol-4-yl]benzenesulfonamide] | 8.6 | < 0.1 |
| NS(=O)(=O)c1ccc(-c2c(-c3ccccc3)noc2CCl)cc1 [Example 1k, 4-[5-chloromethyl-3-phenylisoxazol-4-yl]benzenesulfonamide] | 50.7 | < 0.1 |
| Cc1onc(-c2ccccc2)c1-c1ccc(S(=O)(=O)O)cc1 [Example 1l, 4-[5-methyl-3-phenylisoxazol-4-yl]benzenesulfonic acid] | > 100 | 1.5 |
| CCCc1onc(-c2ccccc2)c1-c1ccc(S(=O)(=O)O)cc1 [Example 1m, 4-[5-propyl-3-phenylisoxazol-4-yl]benzenesulfonic acid] | > 100 | 51 |
| COCc1onc(-c2ccccc2)c1-c1ccc(S(N)(=O)=O)cc1 [Example 1n, 4-[5-methoxymethyl-3-phenylisoxazol-4-yl]benzenesulfonamide] | > 100 | < 0.1 |
| NS(=O)(=O)c1ccc(-c2c(-c3ccccc3)noc2CCCO)cc1 [Example 1o, 4-[5-(3-hydroxypropyl)-3-phenylisoxazol-4-yl]benzenesulfonamide] | > 100 | 0.1 |
| COc1ccc(-c2noc(C)c2-c2ccc(S(N)(=O)=O)cc2)cc1F [Example 4, 4-[3-(3-Fluoro-4-methoxyphenyl)-5-methylisoxazol-4-yl]benzenesulfonamide] | > 100 | 3 |
| Cc1onc(-c2ccc(Cl)cc2)c1-c1ccc(S(N)(=O)=O)cc1 [Example 4a, 4-[3-(4-chlorophenyl)-5-methyl-isoxazol-4-yl]benzenesulfonamide] | 90.5 | < 0.1 |
| Cc1onc(-c2ccc(F)cc2)c1-c1ccc(S(N)(=O)=O)cc1 [Example 4b, 4-[3-(4-fluorophenyl)-5-methyl-isoxazol-4-yl]benzenesulfonamide] | > 100 | < 0.1 |
| Cc1ccc(-c2noc(C)c2-c2ccc(S(N)(=O)=O)cc2)cc1F [Example 4c, 4-[3-(3-fluoro-4-methylphenyl)-5-methyl-isoxazol-4-yl]benzenesulfonamide] | 66.5 | < 0.1 |
| Cc1ccc(-c2noc(C)c2-c2ccc(S(N)(=O)=O)cc2)cc1Cl [Example 4d, 4-[3-(3-chloro-4-methylphenyl)-5-methyl-isoxazol-4-yl]benzenesulfonamide] | 44 | < 0.1 |
| Cc1onc(-c2cccnc2)c1-c1ccc(S(N)(=O)=O)cc1 [Example 4e, 4-[5-methyl-3-(3-pyridyl)isoxazol-4-yl]benzenesulfonamide] | > 100 | 2 |
| Cc1onc(-c2ccncc2)c1-c1ccc(S(N)(=O)=O)cc1 [Example 4f, 4-[5-methyl-3-(4-pyridyl)-isoxazol-4-yl]benzenesulfonamide] | > 100 | > 100 |
| Cc1onc(-c2ccccc2)c1-c1ccc(S(C)(=O)=O)cc1 [Example 5, 5-Methyl-4-[4-(methylsulfonyl)phenyl]-3-phenylisoxazole] | > 100 | 4 |
| COc1ccc(-c2noc(CC(=O)O)c2-c2ccc(S(C)(=O)=O)cc2)cc1F [Example 6, [3-[3-Fluoro-4-methoxyphenyl]-4-[4-(methylsulfonyl)phenyl]isoxazol-5-yl]acetic acid] | > 100 | 35.7 |
| COc1ccc(-c2noc(C)c2-c2ccc(S(C)(=O)=O)cc2)cc1Cl [Example 7, 3-(3-Chloro-4-methoxyphenyl)-5-methyl-4-[4-methylsulfonylphenyl]isoxazole] | > 100 | 86.7 |
| CS(=O)(=O)c1ccc(-c2c(-c3ccccc3)noc2CC(=O)O)cc1 [Example 8, [4-[4-(methylsulfonyl)phenyl]-3-phenylisoxazol-5-yl]acetic acid] | > 100 | > 100 |
| NS(=O)(=O)c1ccc(-c2c(-c3ccccc3)noc2CC(=O)O)cc1 [Example 9, [4-[4-(Aminosulfonyl)phenyl]-3-phenylisoxazol-5-yl]acetic acid] | > 100 | – |
| CCc1noc(-c2ccc(C)cc2)c1-c1ccc(S(N)(=O)=O)cc1 [Example 17, 4-[3-Ethyl-5-(4-methylphenyl)isoxazol-4-yl]benzenesulfonamide] | > 100 | 2.1 |

Now from value to compound:

| IC50 (COX-1) [µM] | IC50 (COX-2) [µM] | Structure (SMILES) |
| --- | --- | --- |
| – | 35 | NS(=O)(=O)c1ccc(-c2c(-c3ccccc3)noc2C(=O)O)cc1 [Example 11, [4-[4-(Aminosulfonyl)phenyl]-3-phenylisoxazol-5-yl]carboxylic acid] |
| > 100 | 2.5 | NS(=O)(=O)c1ccc(-c2c(-c3ccccc3)noc2O)cc1 [Example 12, 4-[5-Hydroxy-3-phenylisoxazol-4-yl]benzenesulfonamide] |
| 6.4 | – | Cc1noc(-c2ccccc2)c1-c1ccc(S(N)(=O)=O)cc1 [Example 13, 4-[3-Methyl-5-phenylisoxazol-4-yl]benzenesulfonamide] |
| 59 | 0.1 | CC(C)c1noc(-c2ccccc2)c1-c1ccc(S(N)(=O)=O)cc1 [Example 15, 4-[3-isopropyl-5-phenylisoxazol-4-yl]benzenesulfonamide] |
| > 100 | 3.1 | CCCc1noc(-c2ccccc2)c1-c1ccc(S(N)(=O)=O)cc1 [Example 16, 4-[5-Phenyl-3-propylisoxazol-4-yl]benzenesulfonamide] |
| > 100 | 0.6 | CCCCc1noc(-c2ccccc2)c1-c1ccc(S(N)(=O)=O)cc1 [Example 18, 4-[3-Butyl-5-phenylisoxazol-4-yl]benzenesulfonamide] |
| > 100 | 8.7 | Cc1ccc(-c2onc(C)c2-c2ccc(S(N)(=O)=O)cc2)cc1 [Example 19, 4-[3-Methyl-5-(4-methylphenyl)isoxazol-4-yl]benzenesulfonamide] |
| > 100 | 4.7 | Cc1noc(-c2ccc(Cl)cc2)c1-c1ccc(S(N)(=O)=O)cc1 [Example 20, 4-[5-(4-chlorophenyl)-3-methylisoxazol-4-yl]benzenesulfonamide] |
| > 100 | 5.2 | Cc1noc(-c2ccc(F)cc2)c1-c1ccc(S(N)(=O)=O)cc1 [Example 21, 4-[5-(4-fluorophenyl)-3-methylisoxazol-4-yl]benzenesulfonamide] |
| > 100 | 5.3 | Cc1noc(-c2ccc(S(C)(=O)=O)cc2)c1-c1ccccc1 [Example 22, 3-Methyl-5-(4-methylsulfonylphenyl)-4-phenylisoxazole] |
| > 100 | – | CCc1noc(-c2ccccc2)c1-c1ccc(S(C)(=O)=O)cc1 [Example 29, 3-Ethyl-4-(4-methylsulfonylphenyl)-5-phenylisoxazole] |
| 76 | – | CCc1noc(-c2cccc(C)c2)c1-c1ccc(S(N)(=O)=O)cc1 [Example 32, 4-[3-Ethyl-5-(3-methylphenyl)isoxazol-4-yl]benzenesulfonamide] |
| > 100 | – | Cc1onc(-c2ccc(F)c(F)c2)c1-c1ccc(S(N)(=O)=O)cc1 [Example 49, 4-[3-(3,4-Difluorophenyl)-5-methylisoxazol-4-yl]benzenesulfonamide] |
